Values joined by “and” are separate entries in the source; they are usually repeats but may differ in a detail not shown here. Equal values may be shown once.
Test system: 677734-321-R-J1-PDC complex spheroid viability
Experiment: Anticancer human tumor 677734-321-R-J1-PDC patient-derived soft tissue sarcoma cell line growth inhibition [POLQ]
Settings: for viability, T/C: stronger effect = lower value
Experimental: Multicellular complex tumor spheroid response to Polymerase (POL) inhibitors (novobiocin, ART-558, RP6685) in combination with a variety of drugs and investigational agents in selected tumor cell lines
The POL inhibitors (novobiocin, ART-558, and RP6685) were evaluated both individually and in combination with standard of care and investigational anticancer small molecules within a complex spheroid model of solid tumors. . Complex spheroids include a stromal component modeled by human endothelial cells (HUVEC) and fibroblasts modeled by human mesenchymal stem cells (MSCs). The concentration ranges selected for each drug and investigational agent were based upon clinically achievable concentrations if the clinical Cmax of the agent was known.
Compounds. The drugs and investigational agents: novobiocin (NSC847541), ART-558 (NSC835418), RP-6685 (NSC848927), peposertib (NSC802822), ceralasertib (NSC780249), elimusertib (NSC800525), camonsertib (NSC841442), AZD-1390 (NSC803789), olaparib (NSC753686), talazoparib (NSC767125), rucaparib (NSC756644), sotorasib (NSC818433), MRTX-1133 (NSC836407), SN-38 (NSC673596), topotecan (NSC609699), epotoside (NSC141540), doxorubicin (NSC123127), gemcitabine (NSC613327), 5-fluorouracil (NSC19893), paclitaxel (NSC125973), vemurafenib (NSC761431), MSA-2 (NSC828583), SN-011 (NSC837082), adavosertib (NSC754352), prexasertib (NSC758257), carboplatin (NSC241240) and oxaliplatin (NSC266046), were obtained from the National Cancer Institute (NCI) Developmental Therapeutics Program Chemical Repository (21). The FDA-approved anticancer drug set is available from the Developmental Therapeutics Program at https://dtp.cancer.gov/organization/dscb/obtaining/. […] The stock solutions were prepared in dimethyl sulfoxide (DMSO, Sigma-Aldrich, St. Louis, MO, cat. D2650), except for the platinum compounds which were prepared in saline (Quality Biological, Gaithersburg, MD, cat. 114-055-101), at 800-fold the tested concentration and stored at -70 degrees C prior to their use. All drugs and investigational agents were tested over a range starting from a high concentration at or near the clinical Cmax and decreasing in half-log increments. If the clinical Cmax for an agent had not been determined, the highest concentration tested was 10 microM, except for SN-38, which was tested at a high concentration of 1 microM.
Cell Culture. All cells were maintained in an incubator at 37 degrees C and 5% CO2 with 95% humidity. The PDC lines were cultured according to standard operating procedures established by the NCI PDMR (https://pdmr.cancer.gov). Table 3 of the manuscript, lists the cell lines along with the number of the three cell types plated to form the mct-spheroids and media for tumor cell growth. After thawing, all PDC lines, except 997537-175-T-J1-PDC and 415267-285-R-J2-PDC, were cultured in Matrigel-coated flasks prepared with a working solution of 1X Ham's F-12 nutrient mix, without supplementation (Thermo Fisher Scientific, cat. 11765054), 100 U/mL penicillin-streptomycin (Thermo Fisher Scientific, cat. 15140122), and 2.5% Matrigel (Corning Inc., Corning, NY, cat. 354248) for the first three passages. The two PDC lines 997537-175-T-J1-PDC and 415267-285-R-J2-PDC were cultured on uncoated flasks. The 857933-349-R-J2-PDC line was cultured in 6C/Colon 1B media containing advanced DMEM/F-12 (Thermo Fisher Scientific, cat. 12634028), 10 mM HEPES (Thermo Fisher Scientific, cat. 15630080), 1X GlutaMAX supplement (Thermo Fisher Scientific, cat. 35050061), 0.1 mg/mL primocin (InvivoGen, San Diego, CA, cat. ant-pm-2), 10% defined fetal bovine serum, heat inactivated (HyClone Laboratories Inc., Logan, UT, cat. SH30070.03HI), 50% L-WRN conditioned media (ATCC, cat. CRL-3276), 1.25 mM N-Acetyl-L-cysteine (Sigma-Aldrich, cat. A9165), 10 mM nicotinamide (Sigma-Aldrich, cat. N0636), 1X B-27 supplement (Thermo Fisher Scientific, cat. 17504044), 1X N-2 supplement (Thermo Fisher Scientific, cat. […]

[1] = compound alone, run of 11/27/2023
[2] = compound alone, run of 12/05/2023
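Note: spheroids exposed to compounds for one week.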
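Throughout, for viability, T/C: 100% = vehicle DMSO treated spheroids.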

Structure (SMILES) | viability, T/C (compound 0.0316 µM) | viability, T/C (compound 0.1 µM) | viability, T/C (compound 0.316 µM) | viability, T/C (compound 1 µM) | viability, T/C (compound 3.16 µM) | viability, T/C (compound 10 µM) | IC50 (curve of compound) | IC50 [1] [µM] | viability, T/C (compound 0.00316 µM) | viability, T/C (compound 0.01 µM) | IC50 [2] [µM] | viability, T/C (compound 0.000316 µM) | viability, T/C (compound 0.001 µM)
CNCc1ccc(-c2[nH]c3cc(F)cc4c3c2CCNC4=O)cc1 | 105% and 107% and 106% | 101% and 75.4% and 97.1% | 102% and 106% and 99.2% | 101% and 99.7% and 105% | 108% and 101% and 99% | 106% and 82.2% and 88.9% | > 10 µM | – | – | – | – | – | –
COC1C(OC(N)=O)C(O)C(Oc2ccc3c(O)c(NC(=O)c4ccc(O)c(CC=C(C)C)c4)c(=O)oc3c2C)OC1(C)C (centres undefined) | 103% [middle of 13 runs] | 104% [middle of 13 runs] | 110% [middle of 13 runs] | 104% [middle of 13 runs] | 106% [middle of 13 runs] | 106% [middle of 13 runs] | – | > 10 | – | – | – | – | –
COc1cc(C2c3cc4c(cc3C(OC3OC5COC(C)OC5C(O)C3O)C3COC(=O)C23)OCO4)cc(OC)c1O (centres undefined) | 104% and 100% and 109% | 89.1% and 82.7% and 89.3% | 62.1% and 53.5% and 58% | 57.5% and 29.2% and 48.4% | 31.5% and 19.5% and 25.9% | 8.04% and 9.9% and 10.2% | 0.97 µM and 0.385 µM and 0.706 µM | – | – | – | – | – | –
COc1cc2cc(C(=O)CCC(=O)O)sc2cc1OC | 100% and 108% and 101% | 94.4% and 93.7% and 102% | 82% and 105% and 114% | 95.8% and 98.6% and 106% | 97.5% and 107% and 106% | 105% and 99.9% and 113% | > 10 µM | – | – | – | – | – | –
COc1ccc([C@@H](O)c2cc(-c3ncnc4cc(N5CCOCC5)ccc34)c(F)cc2Cl)nn1 | 107% and 98.4% and 105% | 105% and 99.2% and 102% | 100% and 104% (2×) | 96.4% and 81.6% and 94.7% | 73.8% and 64.6% and 87.4% | 49.8% and 45.3% and 51% | 9.83 µM and 7.58 µM and > 10 µM | – | – | – | – | – | –
COc1cccc(OCCCN)c1-c1cc(Nc2cnc(C#N)cn2)n[nH]1 | 13.8% and 5.42% and 7.19% | 8.96% and 5.9% and 8.69% | 11% and 6.62% and 7.27% | 10.3% and 5.14% and 6.13% | – | – | 0.00761 µM and 0.00404 µM and 0.00615 µM | – | 96.4% and 60.4% and 103% | 35.5% and 11.5% and 11.2% | – | – | –
COc1cccc2c1C(=O)c1c(O)c3c(c(O)c1C2=O)CC(O)(C(=O)CO)CC3OC1CC(N)C(O)C(C)O1 (centres undefined) | 86.2% and 48.1% and 72.7% | 48.5% and 29% and 48.7% | 8% and 4.1% and 6.65% | 0.91% and 1.65% | 2.59% and 1.37% and 2.03% | 3.4% and 0.66% and 2.59% | 0.0956 µM and < 0.0316 µM and 0.0938 µM | – | – | – | – | – | –
Cc1cccc(N(C)C(=O)C2C(O)CCN2c2nc(C)cc(C(F)(F)F)c2C#N)c1 (centres undefined) | 101% [middle of 13 runs] | 103% [middle of 13 runs] | 107% [middle of 13 runs] | 99.2% [middle of 13 runs] | 102% [middle of 13 runs] | – | – | > 10 | – | – | > 10 | – | –
Cn1ncnc1[C@H]1c2n[nH]c(=O)c3cc(F)cc(c23)N[C@@H]1c1ccc(F)cc1 | 98.8% and 94.5% and 106% | 93% and 75.8% and 93.5% | – | – | – | – | > 0.1 µM | – | 97.4% and 107% and 117% | 105% and 94.7% and 104% | – | 101% and 87.2% and 106% | 104% and 93.2% and 95.4%
Nc1ccc(C#CCN(C(=O)Cc2ncc(C(F)(F)F)cc2C(F)(F)F)c2ccc(F)cc2)nn1 | – | 104% [middle of 13 runs] | 103% [middle of 13 runs] | – | 99.7% [middle of 13 runs] | – | – | – | – | – | > 10 | – | –
Nc1ccn(C2OC(CO)C(O)C2(F)F)c(=O)n1 (centres undefined) | 34.7% and 15.9% and 21.9% | 14.8% and 10.8% and 14.6% | 16.7% and 11.1% and 12.8% | 14.4% and 10% and 14.7% | 14.3% and 7.7% and 10.6% | 12.5% and 6.81% and 8.93% | < 0.0316 µM | – | – | – | – | – | –
O=C(Nc1ccc(O)c(NS(=O)(=O)c2ccc(F)cc2)c1)c1ccc(-c2ccccc2)cc1 | 96.9% and 104% and 110% | 100% and 107% and 109% | 108% and 112% and 104% | 94.2% and 98.8% and 106% | 68.3% and 79.4% and 89.6% | 21.9% and 20.6% and 32.8% | 4.96 µM and 5.6 µM and 7.07 µM | – | – | – | – | – | –
O=C(c1cc(Cc2n[nH]c(=O)c3ccccc23)ccc1F)N1CCN(C(=O)C2CC2)CC1 | 102% and 15.6% and 95.7% | 100% and 20.2% and 94.9% | 104% and 16.8% and 106% | 105% and 20.7% and 100% | 97.5% and 14.8% and 101% | 77.8% and 12.2% and 58.9% | – | – | – | – | – | – | –
O=c1[nH]cc(F)c(=O)[nH]1 | 116% and 111% and 113% | 101% and 86.4% and 96.7% | 108% and 104% (2×) | 85.4% and 84.6% and 91.5% | 54.7% and 62.5% and 51.4% | 44.1% and 59% and 42.7% | 5.22 µM and > 10 µM and 3.84 µM | – | – | – | – | – | –

From PubChem BioAssay AID1963842 (Molecular Pharmacology Branch, DTP, NCI, 2024)
